From patent US11660293B2, “Substituted 2-azabicyclo[3.1.1]heptane and 2-azabicyclo[3.2.1]octane derivatives as orexin receptor antagonists” (Chronos Therapeutics Limited, priority 2017, dated 2023)

Legend:
[1] = molecular target: human Orexin type 1 receptors (Homo sapiens (Human), UniProt O43613); experiment: Scintillation Proximity Assay (SPA) binding assay, [3H]SB-674042 displacement, CHO-hOX1 membranes
[2] = molecular target: human Orexin type 2 receptors (Homo sapiens (Human), UniProt O43614); experiment: Scintillation Proximity Assay (SPA) binding assay, [3H]EMPA displacement, HEK-hOX2 membranes
Chain of human Orexin type 2 receptors (O43614 whole entry): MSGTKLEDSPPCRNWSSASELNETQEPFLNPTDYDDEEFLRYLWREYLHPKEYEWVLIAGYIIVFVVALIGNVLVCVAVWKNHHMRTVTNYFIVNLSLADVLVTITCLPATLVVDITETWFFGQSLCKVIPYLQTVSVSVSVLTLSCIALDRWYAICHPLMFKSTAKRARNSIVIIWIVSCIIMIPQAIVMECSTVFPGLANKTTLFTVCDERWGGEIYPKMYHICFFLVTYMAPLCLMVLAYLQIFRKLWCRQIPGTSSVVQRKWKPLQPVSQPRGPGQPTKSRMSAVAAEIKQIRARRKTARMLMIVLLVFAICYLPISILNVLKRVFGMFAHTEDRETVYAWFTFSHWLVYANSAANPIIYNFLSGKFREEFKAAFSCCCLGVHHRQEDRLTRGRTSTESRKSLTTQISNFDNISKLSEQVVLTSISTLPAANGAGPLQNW

Chain of human Orexin type 1 receptors (O43613 whole entry): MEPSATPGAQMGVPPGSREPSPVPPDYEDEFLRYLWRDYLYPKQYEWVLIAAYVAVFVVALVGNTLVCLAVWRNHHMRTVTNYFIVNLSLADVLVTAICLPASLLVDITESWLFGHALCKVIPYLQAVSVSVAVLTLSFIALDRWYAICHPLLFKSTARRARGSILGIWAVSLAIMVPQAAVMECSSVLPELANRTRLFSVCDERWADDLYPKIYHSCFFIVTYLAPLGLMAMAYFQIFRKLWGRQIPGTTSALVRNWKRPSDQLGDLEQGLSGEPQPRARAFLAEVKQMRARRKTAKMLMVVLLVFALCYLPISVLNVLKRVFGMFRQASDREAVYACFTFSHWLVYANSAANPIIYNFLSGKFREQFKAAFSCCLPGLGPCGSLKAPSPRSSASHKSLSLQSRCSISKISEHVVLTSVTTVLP

| SMILES | OX1 pKi (SPA binding) ([1]; Table 2, [3H]SB-674042 2 nM) | OX2 pKi (SPA binding) ([2]; Table 2, [3H]EMPA 2 nM) | Ki ([2]; Table 2, [3H]EMPA 2 nM, read-out: OX2 pKi (SPA binding) (converted)) [µM] | OX1 pKi (SPA binding) ([1]; Table 1, [3H]SB-674042 2 nM) | OX2 pKi (SPA binding) ([2]; Table 1, [3H]EMPA 2 nM) |
| --- | --- | --- | --- | --- | --- |
| C[C@@H]1C2CC(C2)N(C(=O)c2cc(Cl)ccc2-n2nccn2)C1CNc1nc2cccnc2s1 (single isomer, unassigned) [Example 236, N-{[(3R,4S) or (3S,4R)-2-[5-chloro-2-(2H-1,2,3-triazol-2-yl)benzoyl]-4-methyl-2-azabicyclo[3.1.1]heptan-3-yl]methyl}-[1,3]thiazolo[5,4-b]pyridin-2-amine] | 8.99 | 5.7 | – | – | – |
| C[C@@H]1C2CC(C2)N(C(=O)c2cc(Cl)ccc2-n2nccn2)C1CNc1ncc(C(F)(F)F)cn1 (single isomer, unassigned) [Example 241, N-{[(3R,4S) or (3S,4R)-2-[5-chloro-2-(2H-1,2,3-triazol-2-yl)benzoyl]-4-methyl-2-azabicyclo[3.1.1]heptan-3-yl]methyl}-5-(trifluoromethyl)pyrimidin-2-amine] | 8.27 | 5.59 | – | – | – |
| C[C@@H]1C2CC(C2)N(C(=O)c2cc(Cl)ccc2-n2nccn2)C1CNc1nc2cccnc2o1 (single isomer, unassigned) [Example 244, N-{[(3R,4S) or (3S,4R)-2-[5-chloro-2-(2H-1,2,3-triazol-2-yl)benzoyl]-4-methyl-2-azabicyclo[3.1.1]heptan-3-yl]methyl}-[1,3]oxazolo[5,4-b]pyridin-2-amine] | 8.25 | 5.18 | – | – | – |
| Cc1ccc(-c2ncccn2)c(C(=O)N2C3CC(C3)[C@@H](C)C2CNc2cnc(C(F)(F)F)cn2)n1 (single isomer, unassigned) [Example 249, N-{[(3S,4R) or (3R,4S)-4-methyl-2-[6-methyl-3-(pyrimidin-2-yl)pyridine-2-carbonyl]-2-azabicyclo[3.1.1]heptan-3-yl]methyl}-5-(trifluoromethyl)pyrazin-2-amine] | 5.12 | – | > 31.6 | – | – |
| Cc1ccc(-c2ncccn2)c(C(=O)N2C3CC(C3)[C@@H](C)C2CNc2cnc(C(F)(F)F)cn2)n1 (single isomer, unassigned) [Example 250, N-{[(3R,4S) or (3S,4R)-4-methyl-2-[6-methyl-3-(pyrimidin-2-yl)pyridine-2-carbonyl]-2-azabicyclo[3.1.1]heptan-3-yl]methyl}-5-(trifluoromethyl)pyrazin-2-amine] | 7.9 | 4.85 | – | – | – |
| Cc1ccc(-n2nccn2)c(C(=O)N2C3CC(C3)[C@@H](C)C2CNc2cnc(C(F)(F)F)cn2)c1 (single isomer, unassigned) [Example 256, N-{[(3R,4S) or (3S,4R)-4-methyl-2-[5-methyl-2-(2H-1,2,3-triazol-2-yl)benzoyl]-2-azabicyclo[3.1.1]heptan-3-yl]methyl}-5-(trifluoromethyl)pyrazin-2-amine] | 8.75 | 5.18 | – | – | – |
| C[C@@H]1C2CC(C2)N(C(=O)c2cc(F)ccc2-n2nccn2)C1CNc1cnc2cc(F)ccc2n1 (stereo in doubt) [Example 224, cis-6-fluoro-N-({2-[5-fluoro-2-(2H-1,2,3-triazol-2-yl)benzoyl]-4-methyl-2-azabicyclo[3.1.1]heptan-3-yl}methyl)quinoxalin-2-amine] | 8.04 | 6.19 | – | – | – |
| Cc1ccc(-n2nccn2)c(C(=O)N2C3CC(C3)[C@@H](C)C2CNc2nc3ccccc3o2)n1 (stereo in doubt) [Example 225, cis-N-({4-methyl-2-[6-methyl-3-(2H-1,2,3-triazol-2-yl)pyridine-2-carbonyl]-2-azabicyclo[3.1.1]heptan-3-yl}methyl)-1,3-benzoxazol-2-amine] | 8.32 | 5.22 | – | – | – |
| Cc1nc(C(=O)N2C(COc3cc4ccccc4cn3)CC3CC2C3)c(-c2ccccc2)s1 (centres unmarked) [Example 38] | – | – | – | 7.61 | 6.9 |
| Cc1ccc(-n2nccn2)c(C(=O)N2C(COc3ccc(F)cc3)CC3CC2C3)n1 (centres unmarked) [Example 39] | – | – | – | 7.64 | 6.19 |
| Cc1nc(C(=O)N2C(COc3ccc(F)cc3)CC3CC2C3)c(-c2ccccc2F)s1 (centres unmarked) [Example 40] | – | – | – | 7.33 | 6.19 |
| Cc1nc(C(=O)N2C(COc3cccc(F)c3)CC3CC2C3)c(-c2ccccc2)s1 (centres unmarked) [Example 44] | – | – | – | 7.15 | 6.38 |
| Cc1nc(C(=O)N2C(COc3ccccc3F)CC3CC2C3)c(-c2ccccc2)s1 (centres unmarked) [Example 45] | – | – | – | 7.22 | 7.12 |
| Cc1nc(C(=O)N2C(COc3ccc(Br)cc3)CC3CC2C3)c(-c2ccccc2)s1 (centres unmarked) [Example 46] | – | – | – | 7.62 | 6.51 |
| Cc1nc(C(=O)N2C(COc3ccc(F)c(F)c3)CC3CC2C3)c(-c2ccccc2)s1 (centres unmarked) [Example 47] | – | – | – | 7.61 | 6.91 |
| Cc1ccc(OCC2CC3CC(C3)N2C(=O)c2nc(C)sc2-c2ccccc2)cc1 (centres unmarked) [Example 48] | – | – | – | 7.45 | 6.53 |
| Cc1nc(C(=O)N2C(COc3ccc(Cl)cc3)CC3CC2C3)c(-c2ccccc2)s1 (centres unmarked) [Example 49] | – | – | – | 7.88 | 6.81 |

| SMILES | OX1 pKi (SPA binding) ([1]; Table 2, [3H]SB-674042 2 nM) | OX2 pKi (SPA binding) ([2]; Table 2, [3H]EMPA 2 nM) | Ki ([2]; Table 2, [3H]EMPA 2 nM, read-out: OX2 pKi (SPA binding) (converted)) [µM] | OX1 pKi (SPA binding) ([1]; Table 1, [3H]SB-674042 2 nM) | OX2 pKi (SPA binding) ([2]; Table 1, [3H]EMPA 2 nM) |
| --- | --- | --- | --- | --- | --- |
| Cc1nc(C(=O)N2C(COc3ccc(F)cc3)CC3CC2C3)c(-c2ccc(F)cc2)s1 (centres unmarked) [Example 50] | – | – | – | 7.66 | 6.52 |
| COc1nc(C(=O)N2C(COc3ccc(F)cc3)CC3CC2C3)c(-c2ccccc2)s1 (centres unmarked) [Example 52] | – | – | – | 7.71 | 6.79 |
| O=C(c1nc(C2CC2)sc1-c1ccccc1)N1C(COc2ccc(F)cc2)CC2CC1C2 (centres unmarked) [Example 53] | – | – | – | 7.58 | 7.13 |
| Cc1nc(C(=O)N2C(COc3nc4ccc(F)cc4s3)CC3CC2C3)c(-c2ccccc2)s1 (centres unmarked) [Example 54] | – | – | – | 7.77 | 7.03 |
| Cc1nc(C(=O)N2C(COc3ccc(C(F)(F)F)cn3)CC3CC2C3)c(-c2ccccc2)s1 (centres unmarked) [Example 55] | – | – | – | 7.38 | 6.49 |
| Cc1nc(C(=O)N2C(COc3ccc4ccccc4n3)CC3CC2C3)c(-c2ccccc2)s1 (centres unmarked) [Example 56] | – | – | – | 7.98 | 7.12 |
| Cc1nc(C(=O)N2C(COc3ncc4ccn(C)c4n3)CC3CC2C3)c(-c2ccccc2)s1 (centres unmarked) [Example 57] | – | – | – | 7.35 | 6.86 |
| Cc1nc(C(=O)N2C(COc3cnc4ccccc4n3)CC3CC2C3)c(-c2ccccc2)s1 (centres unmarked) [Example 58] | – | – | – | 7.4 | 6.76 |
| Cc1nc(C(=O)N2C(CNc3cc4ccccc4cn3)CC3CC2C3)c(-c2ccccc2)s1 (centres unmarked) [Example 59, N-[[2-(2-methyl-5-phenyl-1,3-thiazole-4-carbonyl)-2-azabicyclo[3.1.1]heptan-3-yl]methyl}isoquinolin-3-amine] | – | – | – | 8.1 | 7.46 |
| Cc1nc(C(=O)N2C(CNc3ccc4ccccc4n3)CC3CC2C3)c(-c2ccccc2)s1 (centres unmarked) [Example 60, N-{[2-(2-methyl-5-phenyl-1,3-thiazole-4-carbonyl)-2-azabicyclo[3.1.1]heptan-3-yl]methyl}quinolin-2-amine] | – | – | – | 8.27 | 7.39 |
| Cc1nc(C(=O)N2C(CNc3nc4ccc(F)cc4s3)CC3CC2C3)c(-c2ccccc2)s1 (centres unmarked) [Example 61, 6-fluoro-N-{[2-(2-methyl-5-phenyl-1,3-thiazole-4-carbonyl)-2-azabicyclo[3.1.1]heptan-3-yl]methyl}-1,3-benzothiazol-2-amine] | – | – | – | 9.12 | 8.03 |
| Cc1nc(C(=O)N2C3CC(C3)[C@@H](C)C2COc2ccc(F)cc2)c(-c2ncccn2)s1 (stereo partly drawn) [Example 94, cis-3-[(4-fluorophenoxy)methyl]-4-methyl-2-[2-methyl-5-(pyrimidin-2-yl)-1,3-thiazole-4-carbonyl]-2-azabicyclo[3.1.1]heptane] | – | – | – | 8.04 | 6.35 |
| Cc1ccc(-n2nccn2)c(C(=O)N2C3CC(C3)[C@@H](C)C2COc2ccc(F)cc2)n1 (stereo partly drawn) [Example 95, cis-3-[(4-fluorophenoxy)methyl]-4-methyl-2-[6-methyl-3-(2H-1,2,3-triazol-2-yl)pyridine-2-carbonyl]-2-azabicyclo[3.1.1]heptane] | – | – | – | 8.09 | 6.6 |
| Cc1ccc(-n2nccn2)c(C(=O)N2C3CC(C3)[C@@H](C)C2COc2ccc(F)cc2)c1 (stereo partly drawn) [Example 97, cis-3-[(4-fluorophenoxy)methyl]-4-methyl-2-[5-methyl-2-(2H-1,2,3-triazol-2-yl)benzoyl]-2-azabicyclo[3.1.1]heptane] | – | – | – | 7.74 | 6.51 |
| Cc1ccc(-n2nccn2)c(C(=O)N2C3CC(C3)[C@@H](C)C2COc2ccc(Cl)cn2)n1 (stereo partly drawn) [Example 99, cis-3-{[(5-chloropyridin-2-yl)oxy]methyl}-4-methyl-2-[6-methyl-3-(2H-1,2,3-triazol-2-yl)pyridine-2-carbonyl]-2-azabicyclo[3.1.1]heptane] | – | – | – | 7.37 | 6.18 |
| Cc1ccc(-n2nccn2)c(C(=O)N2C3CC(C3)[C@H](C)C2COc2ccc(Cl)cn2)n1 (stereo partly drawn) [Example 102, trans-3-{[(5-chloropyridin-2-yl)oxy]methyl}-4-methyl-2-[6-methyl-3-(2H-1,2,3-triazol-2-yl)pryidine-2-carbonyl]-2-azabicyclo[3.1.1]heptane] | – | – | – | 7.23 | 5.71 |
| Cc1ccc(-n2nccn2)c(C(=O)N2C3CC(C3)[C@H](C)C2COc2ccc(F)cc2)n1 (stereo partly drawn) [Example 103, trans-3-[(4-fluorophenoxy)methyl]-4-methyl-2-[6-methyl-3-(2H-1,2,3-triazol-2-yl)pyridine-2-carbonyl]-2-azabicyclo[3.1.1]heptane] | – | – | – | 8 | 5.6 |
